Test results reported in US11231416B2, “Virus-like particle (VLP) based small molecule-protein interaction trap” (VIB VZW, priority 2015, dated 2022).

Legend:
MYO1D = biological target: T1, MYO1D (Homo sapiens, UniProt O94832); assay: Viral trapping in VLPs, MS analysis; format: binding; conditions: all proteins (incl. low confidence identifications)
T1 construct: endogenous in cells; host or cells: HEK293T

NQO2 = biological target: T2, NQO2 (Homo sapiens, UniProt P16083); assay: Viral trapping in VLPs, MS analysis; format: binding
T2 construct: endogenous in cells; host or cells: HEK293T

GAK = biological target: T3, GAK (Homo sapiens, UniProt O14976); assay: Viral trapping in VLPs, MS analysis; format: binding; conditions: all proteins (incl. low confidence identifications)
T3 construct: endogenous in cells; host or cells: HEK293T

INSR = biological target: T4, INSR (Homo sapiens, UniProt P06213); assay: Viral trapping in VLPs, MS analysis; format: binding
T4 construct: endogenous in cells; host or cells: HEK293T

APMAP = biological target: T5, APMAP (Homo sapiens, UniProt Q9HDC9); assay: Viral trapping in VLPs, MS analysis; format: binding; conditions: all proteins (incl. low confidence identifications)
T5 construct: endogenous in cells; host or cells: HEK293T

NEK2 = biological target: T6, NEK2 (Homo sapiens, UniProt P51955); assay: Viral trapping in VLPs, MS analysis; format: binding; conditions: all proteins (incl. low confidence identifications)
T6 construct: endogenous in cells; host or cells: HEK293T

PPM1L = biological target: T7, PPM1L (Homo sapiens, UniProt Q5SGD2); assay: Viral trapping in VLPs, MS analysis; format: binding; conditions: all proteins (incl. low confidence identifications)
T7 construct: endogenous in cells; host or cells: HEK293T

FKBP3 = biological target: T8, FKBP3 (Homo sapiens, UniProt Q00688); assay: Viral trapping in VLPs, MS analysis; format: binding; conditions: all proteins (incl. low confidence identifications)
T8 construct: endogenous in cells; host or cells: HEK293T

YIPF5 = biological target: T9, YIPF5 (Homo sapiens, UniProt Q969M3); assay: Viral trapping in VLPs, MS analysis; format: binding; conditions: all proteins (incl. low confidence identifications)
T9 construct: endogenous in cells; host or cells: HEK293T

GEMIN5 = biological target: T10, GEMIN5 (Homo sapiens, UniProt Q8TEQ6); assay: Viral trapping in VLPs, MS analysis; format: binding
T10 construct: endogenous in cells; host or cells: HEK293T

CTNNA2 = biological target: T11, CTNNA2 (Homo sapiens, UniProt P26232); assay: Viral trapping in VLPs, MS analysis; format: binding; conditions: all proteins (incl. low confidence identifications)
T11 construct: endogenous in cells; host or cells: HEK293T

DYNC2H1 = biological target: T12, DYNC2H1 (Homo sapiens, UniProt Q8NCM8); assay: Viral trapping in VLPs, MS analysis; format: binding; conditions: all proteins (incl. low confidence identifications)
T12 construct: endogenous in cells; host or cells: HEK293T

RPS6KA1 = biological target: T13, RPS6KA1 (Homo sapiens, UniProt Q15418); assay: Viral trapping in VLPs, MS analysis; format: binding; conditions: all proteins (incl. low confidence identifications)
T13 construct: endogenous in cells; host or cells: HEK293T

ZNF827 = biological target: T14, ZNF827 (Homo sapiens, UniProt Q17R98); assay: Viral trapping in VLPs, MS analysis; format: binding; conditions: all proteins (incl. low confidence identifications)
T14 construct: endogenous in cells; host or cells: HEK293T

TMX1 = biological target: T15, TMX1 (Homo sapiens, UniProt Q9H3N1); assay: Viral trapping in VLPs, MS analysis; format: binding; conditions: all proteins (incl. low confidence identifications)
T15 construct: endogenous in cells; host or cells: HEK293T

IGF1R = biological target: T16, IGF1R (Homo sapiens, UniProt P08069); assay: Viral trapping in VLPs, MS analysis; format: binding
T16 construct: endogenous in cells; host or cells: HEK293T

TMEM30A = biological target: T17, TMEM30A (Homo sapiens, UniProt Q9NV96); assay: Viral trapping in VLPs, MS analysis; format: binding; conditions: all proteins (incl. low confidence identifications)
T17 construct: endogenous in cells; host or cells: HEK293T

BZW1 = biological target: T18, BZW1 (Homo sapiens, UniProt Q7L1Q6); assay: Viral trapping in VLPs, MS analysis; format: binding; conditions: all proteins (incl. low confidence identifications)
T18 construct: endogenous in cells; host or cells: HEK293T

RCL = biological target: T19, RCL (Homo sapiens, UniProt O43598); assay: Viral trapping in VLPs, MS analysis; format: binding
T19 construct: endogenous in cells; host or cells: HEK293T

MFI2 = biological target: T20, MFI2 (Homo sapiens, UniProt P08582); assay: Viral trapping in VLPs, MS analysis; format: binding; conditions: all proteins (incl. low confidence identifications)
T20 construct: endogenous in cells; host or cells: HEK293T

MST1R = biological target: T21, MST1R (Homo sapiens, UniProt Q04912); assay: Viral trapping in VLPs, MS analysis; format: binding; conditions: all proteins (incl. low confidence identifications)
T21 construct: endogenous in cells; host or cells: HEK293T

HTRA3 = conditions: all proteins (incl. low confidence identifications)
TMEM9 = biological target: T22, TMEM9 (Homo sapiens, UniProt Q9P0T7); assay: Viral trapping in VLPs, MS analysis; format: binding; conditions: all proteins (incl. low confidence identifications)
T22 construct: endogenous in cells; host or cells: HEK293T

LMAN1 = biological target: T23, LMAN1 (Homo sapiens, UniProt P49257); assay: Viral trapping in VLPs, MS analysis; format: binding; conditions: all proteins (incl. low confidence identifications)
T23 construct: endogenous in cells; host or cells: HEK293T

MBTPS1 = biological target: T24, MBTPS1 (Homo sapiens, UniProt Q14703); assay: Viral trapping in VLPs, MS analysis; format: binding; conditions: all proteins (incl. low confidence identifications)
T24 construct: endogenous in cells; host or cells: HEK293T

CAMKV = biological target: T25, CAMKV (Homo sapiens, UniProt Q8NCB2); assay: Viral trapping in VLPs, MS analysis; format: binding; conditions: all proteins (incl. low confidence identifications)
T25 construct: endogenous in cells; host or cells: HEK293T

NT5C = biological target: T26, NT5C (Homo sapiens, UniProt Q8TCD5); assay: Viral trapping in VLPs, MS analysis; format: binding; conditions: all proteins (incl. low confidence identifications)
T26 construct: endogenous in cells; host or cells: HEK293T

USP7 = biological target: T27, USP7 (Homo sapiens, UniProt Q93009); assay: Viral trapping in VLPs, MS analysis; format: binding; conditions: all proteins (incl. low confidence identifications)
T27 construct: endogenous in cells; host or cells: HEK293T

[1] = all proteins (incl. low confidence identifications)
[2] = proteins identified with >1 peptide (high confidence)

Measured: Recurrence (x/2)

T16 sequence (P08069 31-1367): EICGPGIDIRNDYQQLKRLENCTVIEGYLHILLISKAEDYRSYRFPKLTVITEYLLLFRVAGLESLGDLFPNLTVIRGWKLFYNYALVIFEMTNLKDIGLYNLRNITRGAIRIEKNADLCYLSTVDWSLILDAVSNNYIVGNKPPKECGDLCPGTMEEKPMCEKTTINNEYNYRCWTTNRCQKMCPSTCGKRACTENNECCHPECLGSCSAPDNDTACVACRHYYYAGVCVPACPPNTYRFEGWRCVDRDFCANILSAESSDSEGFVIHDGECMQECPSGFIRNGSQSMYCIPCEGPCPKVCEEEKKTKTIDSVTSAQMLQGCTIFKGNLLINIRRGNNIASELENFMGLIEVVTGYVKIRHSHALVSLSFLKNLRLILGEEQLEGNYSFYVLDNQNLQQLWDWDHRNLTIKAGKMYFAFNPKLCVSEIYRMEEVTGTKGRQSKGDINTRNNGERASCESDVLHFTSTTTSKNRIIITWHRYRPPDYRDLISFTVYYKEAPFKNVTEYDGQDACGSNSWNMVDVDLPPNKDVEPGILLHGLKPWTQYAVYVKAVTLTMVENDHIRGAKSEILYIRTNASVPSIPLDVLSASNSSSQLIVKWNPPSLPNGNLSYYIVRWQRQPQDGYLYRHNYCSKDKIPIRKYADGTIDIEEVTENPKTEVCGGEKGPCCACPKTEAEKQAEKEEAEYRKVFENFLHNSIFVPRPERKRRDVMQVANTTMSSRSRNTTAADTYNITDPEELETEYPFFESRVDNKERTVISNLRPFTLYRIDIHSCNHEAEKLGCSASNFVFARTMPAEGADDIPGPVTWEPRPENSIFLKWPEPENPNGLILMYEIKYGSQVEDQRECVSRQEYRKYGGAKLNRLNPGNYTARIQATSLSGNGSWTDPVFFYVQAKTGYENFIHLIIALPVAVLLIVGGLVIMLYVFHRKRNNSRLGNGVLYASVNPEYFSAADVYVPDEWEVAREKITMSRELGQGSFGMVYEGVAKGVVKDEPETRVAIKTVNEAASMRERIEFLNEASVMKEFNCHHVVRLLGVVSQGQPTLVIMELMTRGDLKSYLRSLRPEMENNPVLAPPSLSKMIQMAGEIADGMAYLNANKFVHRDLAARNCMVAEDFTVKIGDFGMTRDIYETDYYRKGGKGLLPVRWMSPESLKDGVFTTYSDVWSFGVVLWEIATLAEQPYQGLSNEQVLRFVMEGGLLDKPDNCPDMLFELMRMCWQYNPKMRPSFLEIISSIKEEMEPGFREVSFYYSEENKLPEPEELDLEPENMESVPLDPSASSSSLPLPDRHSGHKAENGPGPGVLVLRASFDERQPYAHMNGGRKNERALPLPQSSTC
T4 sequence (P06213 28-1382): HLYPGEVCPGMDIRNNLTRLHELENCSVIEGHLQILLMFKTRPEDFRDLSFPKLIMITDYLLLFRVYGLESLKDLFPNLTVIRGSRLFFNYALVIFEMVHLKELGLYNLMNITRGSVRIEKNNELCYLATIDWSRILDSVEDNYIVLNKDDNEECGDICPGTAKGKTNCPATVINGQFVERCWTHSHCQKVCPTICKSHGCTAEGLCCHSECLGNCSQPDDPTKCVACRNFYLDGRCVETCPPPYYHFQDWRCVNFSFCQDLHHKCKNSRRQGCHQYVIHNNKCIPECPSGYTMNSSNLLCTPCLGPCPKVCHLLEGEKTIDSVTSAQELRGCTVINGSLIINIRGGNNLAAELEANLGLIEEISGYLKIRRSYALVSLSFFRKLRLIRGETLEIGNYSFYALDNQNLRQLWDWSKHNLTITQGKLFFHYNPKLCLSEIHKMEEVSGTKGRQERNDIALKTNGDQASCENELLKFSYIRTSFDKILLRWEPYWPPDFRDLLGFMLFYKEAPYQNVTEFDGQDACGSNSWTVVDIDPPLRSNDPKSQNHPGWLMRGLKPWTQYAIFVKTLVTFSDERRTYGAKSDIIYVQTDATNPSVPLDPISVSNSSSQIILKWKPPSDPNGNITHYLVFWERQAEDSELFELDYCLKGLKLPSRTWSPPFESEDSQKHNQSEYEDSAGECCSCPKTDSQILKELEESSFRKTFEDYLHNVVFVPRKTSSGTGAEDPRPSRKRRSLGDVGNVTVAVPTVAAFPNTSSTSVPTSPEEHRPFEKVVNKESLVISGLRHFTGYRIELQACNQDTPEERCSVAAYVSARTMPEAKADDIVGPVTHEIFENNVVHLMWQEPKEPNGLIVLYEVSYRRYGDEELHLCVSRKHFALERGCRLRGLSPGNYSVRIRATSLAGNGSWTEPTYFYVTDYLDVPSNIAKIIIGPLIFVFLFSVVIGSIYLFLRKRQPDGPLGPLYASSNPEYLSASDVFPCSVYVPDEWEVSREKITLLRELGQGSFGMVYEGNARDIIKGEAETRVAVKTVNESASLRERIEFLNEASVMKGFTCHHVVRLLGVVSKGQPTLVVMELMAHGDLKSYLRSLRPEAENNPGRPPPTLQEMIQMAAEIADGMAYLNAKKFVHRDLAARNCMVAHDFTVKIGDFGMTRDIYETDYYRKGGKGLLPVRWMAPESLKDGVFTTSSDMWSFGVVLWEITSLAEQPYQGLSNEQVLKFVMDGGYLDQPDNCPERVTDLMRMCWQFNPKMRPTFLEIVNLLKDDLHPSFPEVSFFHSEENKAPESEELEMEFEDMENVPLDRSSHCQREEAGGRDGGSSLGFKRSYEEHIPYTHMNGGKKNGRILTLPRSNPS
T19 sequence (O43598 whole entry): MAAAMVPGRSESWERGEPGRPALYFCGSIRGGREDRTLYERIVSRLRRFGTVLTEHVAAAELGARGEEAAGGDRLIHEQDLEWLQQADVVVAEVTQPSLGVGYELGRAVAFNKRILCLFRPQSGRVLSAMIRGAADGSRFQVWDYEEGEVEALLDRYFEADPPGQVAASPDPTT
T2 sequence (P16083 whole entry): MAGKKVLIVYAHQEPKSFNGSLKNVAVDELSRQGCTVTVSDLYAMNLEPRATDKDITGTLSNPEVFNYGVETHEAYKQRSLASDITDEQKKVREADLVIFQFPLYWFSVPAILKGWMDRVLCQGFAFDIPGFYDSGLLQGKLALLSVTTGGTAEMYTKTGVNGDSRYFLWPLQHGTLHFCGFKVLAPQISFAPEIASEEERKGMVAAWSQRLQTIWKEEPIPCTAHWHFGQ
T10 sequence (Q8TEQ6 whole entry): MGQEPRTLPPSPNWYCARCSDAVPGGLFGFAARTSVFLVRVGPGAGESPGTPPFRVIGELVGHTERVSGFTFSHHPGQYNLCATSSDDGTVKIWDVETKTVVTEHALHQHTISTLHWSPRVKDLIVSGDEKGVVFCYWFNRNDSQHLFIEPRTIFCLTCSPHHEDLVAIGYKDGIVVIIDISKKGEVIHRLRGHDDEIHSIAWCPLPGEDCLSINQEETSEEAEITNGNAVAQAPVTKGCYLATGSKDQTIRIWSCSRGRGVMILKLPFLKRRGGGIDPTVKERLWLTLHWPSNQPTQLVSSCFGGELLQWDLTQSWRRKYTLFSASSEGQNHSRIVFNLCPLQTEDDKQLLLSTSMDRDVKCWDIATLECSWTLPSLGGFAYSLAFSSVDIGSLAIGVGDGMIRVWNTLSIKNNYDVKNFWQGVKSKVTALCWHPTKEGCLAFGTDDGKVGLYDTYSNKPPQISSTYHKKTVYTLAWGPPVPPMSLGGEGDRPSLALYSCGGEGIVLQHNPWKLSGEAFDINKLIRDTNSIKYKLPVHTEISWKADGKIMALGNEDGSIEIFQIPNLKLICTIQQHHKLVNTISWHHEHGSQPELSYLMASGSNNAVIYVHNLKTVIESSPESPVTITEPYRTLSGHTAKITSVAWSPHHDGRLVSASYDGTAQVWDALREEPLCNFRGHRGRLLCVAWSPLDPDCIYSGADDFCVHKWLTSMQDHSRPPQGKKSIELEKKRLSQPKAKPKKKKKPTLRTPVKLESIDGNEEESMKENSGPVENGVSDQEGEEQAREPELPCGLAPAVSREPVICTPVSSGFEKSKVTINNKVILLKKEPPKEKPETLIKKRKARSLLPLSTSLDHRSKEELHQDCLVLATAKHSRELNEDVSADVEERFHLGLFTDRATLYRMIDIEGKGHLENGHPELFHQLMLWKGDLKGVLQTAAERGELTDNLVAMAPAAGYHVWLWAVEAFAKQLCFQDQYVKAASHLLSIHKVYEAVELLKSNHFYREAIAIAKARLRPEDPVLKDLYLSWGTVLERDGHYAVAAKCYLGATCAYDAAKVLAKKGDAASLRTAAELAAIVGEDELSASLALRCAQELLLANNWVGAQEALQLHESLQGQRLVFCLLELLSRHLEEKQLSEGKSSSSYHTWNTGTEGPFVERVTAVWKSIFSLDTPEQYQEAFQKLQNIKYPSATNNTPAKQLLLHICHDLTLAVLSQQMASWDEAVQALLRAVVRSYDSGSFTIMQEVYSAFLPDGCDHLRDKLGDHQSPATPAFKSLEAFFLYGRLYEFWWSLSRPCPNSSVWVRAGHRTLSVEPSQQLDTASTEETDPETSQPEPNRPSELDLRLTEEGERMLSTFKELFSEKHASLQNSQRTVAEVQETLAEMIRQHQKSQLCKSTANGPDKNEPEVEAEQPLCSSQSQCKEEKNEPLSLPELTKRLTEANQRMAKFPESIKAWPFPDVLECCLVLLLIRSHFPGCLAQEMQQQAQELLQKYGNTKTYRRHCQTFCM
T7 sequence (Q5SGD2 whole entry): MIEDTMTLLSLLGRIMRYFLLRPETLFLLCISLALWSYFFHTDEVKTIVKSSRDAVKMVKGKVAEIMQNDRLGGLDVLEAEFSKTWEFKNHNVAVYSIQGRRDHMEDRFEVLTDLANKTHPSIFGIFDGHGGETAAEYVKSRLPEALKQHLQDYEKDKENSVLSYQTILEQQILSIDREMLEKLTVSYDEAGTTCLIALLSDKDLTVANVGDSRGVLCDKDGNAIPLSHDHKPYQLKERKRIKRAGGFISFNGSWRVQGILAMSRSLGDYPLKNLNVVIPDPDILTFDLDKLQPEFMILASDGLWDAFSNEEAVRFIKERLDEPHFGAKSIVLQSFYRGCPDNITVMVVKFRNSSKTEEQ

CN(Cc1cnc2nc(N)nc(N)c2n1)c1ccc(C(=O)NC(CCC(=O)NCCOCCOCCOCCOCCOCCn2cc(CN3CCN(c4ccc(Nc5nc(NC6CCCCC6)c6nc[nH]c6n5)cc4)CC3)nn2)C(=O)O)cc1 (stereo not drawn) [MTX-PEG6-reversine]
1 x/2: MYO1D | NQO2; [2] | GAK | APMAP | NEK2 | PPM1L | FKBP3 | YIPF5 | GEMIN5; [1] | GEMIN5; [2] | CTNNA2 | DYNC2H1 | RPS6KA1 | ZNF827 | TMX1 | TMEM30A | BZW1 | RCL; [1] | RCL; [2] | MFI2 | MST1R | HTRA3 | TMEM9 | LMAN1 | MBTPS1 | CAMKV | NT5C | USP7
2 x/2: NQO2; [1] | INSR; [1] | INSR; [2] | IGF1R; [1] | IGF1R; [2]
